The results in this text go back to patent publication US20240317777A1, “NOVEL MACROCYCLIC AMINOPYRAZOLE COMPOUNDS AS CDK2 INHIBITORS” (Accutar Biotechnology Inc., priority 2023, published 2024).

Experiment [1] concerns the target CDK4-CYCLIN D1 (Homo sapiens, UniProt P11802). The experiment can be described thus: CDK protein kinase inhibition by ADP-Glo assay, CDK4-CYCLIN D1. The format is biochemical. Conditions: for IC50: ADP-Glo, 1000 μM ATP, read-out: CDK4-CYCLIND1, IC50; for CDK2 Fold selectivity, CDK4: CDK2 versus CDK4. Put shortly: (§1)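 Human CDK/cyclin complexes phosphorylated peptide substrates at 22° C in 100 mM HEPES pH 7.5 with 5 mM MgCl2, 1 mM DTT, 0.1% BSA, 0.01% Triton X-100 and 1000 μM ATP (1% DMSO). ADP formed was detected by ADP-Glo luminescence.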

Experiment [2] has as its target CDK2-CYCLIN E1 (Homo sapiens, UniProt P24941). The experiment can be described thus: CDK protein kinase inhibition by ADP-Glo assay, CDK2-CYCLIN E1. Format: biochemical. Particulars: ADP-Glo, 1000 μM ATP, read-out: CDK2-CYCLINE, IC50. The procedure, abridged:
as §1
For orientation: ADP-Glo first removes unused ATP, then detects ADP through luciferase.

The target of experiment [3] is CDK6-CYCLIN D3 (Homo sapiens, UniProt Q00534). The experiment can be described thus: CDK protein kinase inhibition by ADP-Glo assay, CDK6-CYCLIN D3. The format is biochemical. Particulars: for IC50: ADP-Glo, 1000 μM ATP, read-out: CDK6-CYCLIND3, IC50; for CDK2 Fold selectivity, CDK6: CDK2 versus CDK6. Put shortly:
as §1

Experiment [4] deals with Phospho-Rb (Ser807/811) in OVCAR3 cells. The experiment in a line: Phospho-Rb expression inhibition in OVCAR3 cells quantified by In Cell Western. The format is cell-based. Particulars: Homo sapiens, OVCAR-3, 24 hours, read-out: OVCAR-3 pRb IC50. Put shortly:
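In-cell western: after 24 h compound exposure at 37° C, fixed OVCAR3 cells co-stained for pRb Ser807/811 (800 nm channel) and total Rb (680 nm channel), imaged by LI-COR Odyssey.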

Experiment [5] has as its target CDK9-CYCLIN T1 (Homo sapiens, UniProt P50750). The experiment in a line: CDK protein kinase inhibition by ADP-Glo assay, CDK9-CYCLIN T1. Format: biochemical. Particulars: for IC50: ADP-Glo, 1000 μM ATP, read-out: CDK9-CYCLINT1, IC50; for CDK2 Fold selectivity, CDK9: CDK2 versus CDK9. Put shortly:
as §1

The target in experiment [6] is CDK1-CYCLIN B (Homo sapiens, UniProt P06493). The experiment can be described thus: CDK protein kinase inhibition by ADP-Glo assay, CDK1-CYCLIN B. The format is biochemical. Particulars: for IC50: ADP-Glo, 1000 μM ATP, read-out: CDK1-CYCLINB, IC50; for CDK2 Fold selectivity, CDK1: CDK2 versus CDK1. Put shortly: as §1
Chain of CDK1-CYCLIN B (P06493 whole entry): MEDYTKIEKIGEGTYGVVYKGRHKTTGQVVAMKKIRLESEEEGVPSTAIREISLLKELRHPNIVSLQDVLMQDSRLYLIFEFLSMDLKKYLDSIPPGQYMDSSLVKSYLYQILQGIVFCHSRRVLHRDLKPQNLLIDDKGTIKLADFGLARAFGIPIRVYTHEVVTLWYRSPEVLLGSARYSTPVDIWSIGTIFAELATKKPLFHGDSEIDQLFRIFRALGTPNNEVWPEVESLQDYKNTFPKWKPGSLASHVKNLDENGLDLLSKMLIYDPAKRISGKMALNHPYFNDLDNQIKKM
Chain of CDK1-CYCLIN B (P14635 whole entry partner): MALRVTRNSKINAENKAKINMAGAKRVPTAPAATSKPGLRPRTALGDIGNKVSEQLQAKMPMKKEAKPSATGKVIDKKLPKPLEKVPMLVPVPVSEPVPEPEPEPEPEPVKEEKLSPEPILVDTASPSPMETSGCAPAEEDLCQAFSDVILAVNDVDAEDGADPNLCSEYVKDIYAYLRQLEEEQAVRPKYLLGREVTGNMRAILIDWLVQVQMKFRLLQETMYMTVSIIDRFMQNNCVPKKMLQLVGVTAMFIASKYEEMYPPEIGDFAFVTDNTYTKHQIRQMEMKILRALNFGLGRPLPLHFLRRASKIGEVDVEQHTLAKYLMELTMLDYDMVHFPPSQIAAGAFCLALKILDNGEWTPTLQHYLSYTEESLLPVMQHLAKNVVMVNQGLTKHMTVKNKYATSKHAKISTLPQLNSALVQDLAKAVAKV
Experiment [7] has as its system CCNE1-amplified OVCAR3 cells. The experiment can be described thus: Cell growth inhibition of CCNE1-amplified OVCAR3 cells (CellTiter-Glo). Conditions: Homo sapiens, OVCAR-3, 144 h, 6 days. Format: cell-based. The procedure, abridged: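 Growth read-out was CellTiter-Glo luminescence, taken after 10 min at room temperature at the end of a 6-day compound exposure at 37 °C. Compounds were diluted from DMSO stocks across various concentrations.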

For experiment [8], the system named is CCNE1-normal SKOV3 cells. The experiment can be described thus: Cell growth inhibition of CCNE1-normal SKOV3 cells (CellTiter-Glo). Format: cell-based. Particulars: Homo sapiens, SK-OV-3, 144 h, 6 days. The procedure, abridged:
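Growth was measured by CellTiter-Glo luminescence after 6 days' compound exposure at 37 °C. Cells were plated one day before dosing at 1000 per well in medium with 10% FBS, and compounds were diluted from DMSO stocks.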
In general terms: In ATP-based viability assays light output follows the ATP content of the culture.

Where two headings read alike, the source gives them in different places.

Chain of CDK4-CYCLIN D1 (P11802 whole entry): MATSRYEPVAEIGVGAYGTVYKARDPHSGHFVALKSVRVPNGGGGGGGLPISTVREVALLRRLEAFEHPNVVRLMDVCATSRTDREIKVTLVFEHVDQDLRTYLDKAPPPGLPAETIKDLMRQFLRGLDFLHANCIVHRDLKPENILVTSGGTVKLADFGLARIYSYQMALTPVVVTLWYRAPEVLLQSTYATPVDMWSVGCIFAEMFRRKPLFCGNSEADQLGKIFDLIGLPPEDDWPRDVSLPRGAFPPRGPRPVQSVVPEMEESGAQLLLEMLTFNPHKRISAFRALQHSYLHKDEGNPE
Chain of CDK4-CYCLIN D1 (P24385 whole entry partner): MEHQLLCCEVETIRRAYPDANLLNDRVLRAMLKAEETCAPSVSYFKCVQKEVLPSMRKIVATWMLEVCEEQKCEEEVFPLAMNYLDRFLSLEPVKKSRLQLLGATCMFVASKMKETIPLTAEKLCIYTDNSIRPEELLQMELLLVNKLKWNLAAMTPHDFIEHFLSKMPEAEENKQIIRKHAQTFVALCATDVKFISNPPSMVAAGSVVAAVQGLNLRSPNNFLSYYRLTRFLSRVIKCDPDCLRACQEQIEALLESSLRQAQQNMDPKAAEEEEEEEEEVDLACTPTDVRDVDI
Chain of CDK9-CYCLIN T1 (P50750 whole entry): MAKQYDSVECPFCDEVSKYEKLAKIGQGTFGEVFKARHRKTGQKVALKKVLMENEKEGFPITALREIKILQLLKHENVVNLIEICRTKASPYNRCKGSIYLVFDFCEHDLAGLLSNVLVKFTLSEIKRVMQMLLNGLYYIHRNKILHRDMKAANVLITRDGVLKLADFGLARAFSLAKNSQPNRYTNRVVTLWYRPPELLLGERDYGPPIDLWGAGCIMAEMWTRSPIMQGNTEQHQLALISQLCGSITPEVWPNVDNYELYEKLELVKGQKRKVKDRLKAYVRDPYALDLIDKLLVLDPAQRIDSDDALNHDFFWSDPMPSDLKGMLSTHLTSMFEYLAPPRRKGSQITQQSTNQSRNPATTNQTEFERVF
Chain of CDK9-CYCLIN T1 (O60563 whole entry partner): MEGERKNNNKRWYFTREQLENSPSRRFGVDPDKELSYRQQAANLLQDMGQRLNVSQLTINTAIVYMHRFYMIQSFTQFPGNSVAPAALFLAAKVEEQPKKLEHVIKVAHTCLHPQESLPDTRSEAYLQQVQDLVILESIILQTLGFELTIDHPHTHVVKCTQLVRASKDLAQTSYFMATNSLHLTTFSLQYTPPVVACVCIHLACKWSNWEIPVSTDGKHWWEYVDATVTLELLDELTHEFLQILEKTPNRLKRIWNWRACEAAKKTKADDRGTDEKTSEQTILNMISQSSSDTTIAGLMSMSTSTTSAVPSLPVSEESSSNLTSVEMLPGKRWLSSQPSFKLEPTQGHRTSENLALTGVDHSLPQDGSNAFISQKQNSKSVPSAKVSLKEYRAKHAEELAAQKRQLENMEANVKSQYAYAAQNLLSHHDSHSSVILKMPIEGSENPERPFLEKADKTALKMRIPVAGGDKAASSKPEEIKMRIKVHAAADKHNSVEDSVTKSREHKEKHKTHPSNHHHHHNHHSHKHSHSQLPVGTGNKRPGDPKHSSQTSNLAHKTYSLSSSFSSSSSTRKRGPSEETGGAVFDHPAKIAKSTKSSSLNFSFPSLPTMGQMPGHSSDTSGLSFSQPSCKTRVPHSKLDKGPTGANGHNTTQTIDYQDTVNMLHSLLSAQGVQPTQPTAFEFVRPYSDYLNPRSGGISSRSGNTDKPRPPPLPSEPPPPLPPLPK
Chain of CDK6-CYCLIN D3 (Q00534 whole entry): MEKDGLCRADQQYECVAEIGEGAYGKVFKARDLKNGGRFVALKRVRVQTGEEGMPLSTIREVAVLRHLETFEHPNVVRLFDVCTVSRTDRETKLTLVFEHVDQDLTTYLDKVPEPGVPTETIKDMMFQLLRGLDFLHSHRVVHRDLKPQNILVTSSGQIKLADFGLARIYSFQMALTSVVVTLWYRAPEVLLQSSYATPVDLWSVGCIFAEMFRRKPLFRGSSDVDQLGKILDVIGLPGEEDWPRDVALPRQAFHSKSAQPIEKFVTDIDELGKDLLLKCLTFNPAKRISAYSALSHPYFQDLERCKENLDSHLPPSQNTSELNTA
Chain of CDK6-CYCLIN D3 (P30281 whole entry partner): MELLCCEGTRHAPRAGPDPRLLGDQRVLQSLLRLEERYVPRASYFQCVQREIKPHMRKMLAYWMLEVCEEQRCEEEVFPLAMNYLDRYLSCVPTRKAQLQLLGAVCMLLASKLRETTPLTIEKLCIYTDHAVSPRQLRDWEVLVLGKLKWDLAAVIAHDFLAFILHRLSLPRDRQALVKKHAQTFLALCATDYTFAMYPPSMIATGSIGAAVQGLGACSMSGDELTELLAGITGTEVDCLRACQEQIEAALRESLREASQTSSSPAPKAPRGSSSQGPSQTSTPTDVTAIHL

In the case of `C[C@H]1Oc2cncc(c2)Nc2cc(n[nH]2)[C@H]2CC[C@H](C2)OC(=O)N[C@H]2C[C@H]1C2` [Compound 148, (1^1S,1^3R,7^1R,7^3R,6R,Z)-6-methyl-2^1H-5,10-dioxa-3,8-diaza-4(3,5)-pyridina-2(3,5)-pyrazola-1(1,3)-cyclopentana-7(1,3)-cyclobutanacyclodecaphan-9-one], the IC50 is 50 to 100 nM in experiment [1] (Table 21); ≤ 10 nM in experiment [2] (Table 21); 50 to 100 nM in experiment [3] (Table 21); ≤ 2 nM in experiment [4]; 100 to 500 nM in experiment [5] (Table 21); 10 to 50 nM in experiment [6] (Table 21). Besides, the concentration for half-maximal inhibition (IC50) in experiment [7] lay within 2 to 10 nM; in experiment [8] it was 250 to 1250 nM. For the same molecule, the “CDK2 Fold selectivity, CDK4” value in experiment [1] (Table 22) was “E (E, <20)”. Besides, in experiment [3] (Table 22), the “CDK2 Fold selectivity, CDK6” value was “D (D, >20 and ≤50)”. Moreover, in experiment [5] (Table 22), the “CDK2 Fold selectivity, CDK9” value was “D (D, >20 and ≤50)”. In addition, in experiment [6] (Table 22), the “CDK2 Fold selectivity, CDK1” value is listed as “E (E, <20)”.

In the case of `C[C@@H]1Oc2cncc(c2)Nc2cc(n[nH]2)[C@H]2CC[C@H](C2)OC(=O)N[C@H]2C[C@@H]1C2` [Compound 149, (1^1S,1^3R,7^1S,7^3R,6S,Z)-6-methyl-2^1H-5,10-dioxa-3,8-diaza-4(3,5)-pyridina-2(3,5)-pyrazola-1(1,3)-cyclopentana-7(1,3)-cyclobutanacyclodecaphan-9-one], the half-inhibitory concentration (IC50) in experiment [1] (Table 23) is 100 to 500 nM; in experiment [2] (Table 23) it was 10 to 50 nM; in experiment [3] (Table 23), > 500 nM; in experiment [4] it was 10 to 50 nM; in experiment [5] (Table 23), > 500 nM; in experiment [6] (Table 23), 100 to 500 nM. Moreover, the figures for the IC50 in experiment [7] and in experiment [8] were 10 to 50 nM and > 1250 nM, respectively. Besides, the “CDK2 Fold selectivity, CDK4” value in experiment [1] (Table 24) was “E (E, <20)”. In experiment [3] (Table 24), the “CDK2 Fold selectivity, CDK6” value was “D (D, >20 and ≤50)”. Also, the “CDK2 Fold selectivity, CDK9” value in experiment [5] (Table 24) was “C (C, >50 and ≤100)”. Also, the “CDK2 Fold selectivity, CDK1” value in experiment [6] (Table 24) is “E (E, <20)”.

On to `C[C@@H]1Oc2cncc(c2)Nc2cc(n[nH]2)[C@H]2CC[C@H](C2)OC(=O)N[C@H]2C[C@H]1C2` [Compound 150, (1^1S,1^3R,7^1R,7^3S,6S,Z)-6-methyl-2^1H-5,10-dioxa-3,8-diaza-4(3,5)-pyridina-2(3,5)-pyrazola-1(1,3)-cyclopentana-7(1,3)-cyclobutanacyclodecaphan-9-one], for which the IC50 in experiment [1] (Table 21) is 100 to 500 nM; in experiment [2] (Table 21), ≤ 10 nM; in experiment [3] (Table 21) it was 50 to 100 nM; in experiment [4] it was 2 to 10 nM; in experiment [5] (Table 21), 100 to 500 nM; in experiment [6] (Table 21), 10 to 50 nM. Besides, the IC50 in experiment [7] is 2 to 10 nM; in experiment [8], 250 to 1250 nM. Besides, the “CDK2 Fold selectivity, CDK4” value in experiment [1] (Table 22) is “D (D, >20 and ≤50)”. Also, in experiment [3] (Table 22), the “CDK2 Fold selectivity, CDK6” value was “D (D, >20 and ≤50)”. For the same molecule, in experiment [5] (Table 22), the “CDK2 Fold selectivity, CDK9” value was “B (B, >100 and ≤500)”. The “CDK2 Fold selectivity, CDK1” value in experiment [6] (Table 22) is reported as “E (E, <20)”.

Consider `C[C@H]1CC[C@H](C)Oc2cncc(c2)Nc2cc(n[nH]2)[C@H]2CC[C@H](C2)OC(=O)N1` [Compound 151, (1^1S,1^3R,6S,9S,Z)-6,9-dimethyl-2^1H-5,12-dioxa-3,10-diaza-4(3,5)-pyridina-2(3,5)-pyrazola-1(1,3)-cyclopentanacyclododecaphan-11-one], for which the IC50 in experiment [1] (Table 21) was 50 to 100 nM; in experiment [2] (Table 21) it was ≤ 10 nM; in experiment [3] (Table 21), 50 to 100 nM; in experiment [4], 2 to 10 nM; in experiment [5] (Table 21) it was 100 to 500 nM; in experiment [6] (Table 21) it was ≤ 10 nM. The 50% inhibitory concentration (IC50) in experiment [7] was 2 to 10 nM; in experiment [8], 250 to 1250 nM. The “CDK2 Fold selectivity, CDK4” value in experiment [1] (Table 22) is “D (D, >20 and ≤50)”. In experiment [3] (Table 22), the “CDK2 Fold selectivity, CDK6” value is “D (D, >20 and ≤50)”. Also, the “CDK2 Fold selectivity, CDK9” value in experiment [5] (Table 22) was “D (D, >20 and ≤50)”. For the same molecule, the “CDK2 Fold selectivity, CDK1” value in experiment [6] (Table 22) was “E (E, <20)”.

Broadly, the IC50 is the concentration that inhibits the measured activity by half.
